Molecular target: plasminogen (Homo sapiens, UniProt P00747)
Assay: Plasmin-generation test, EMPs in suspension
Assay type: biochemical
Conditions: 5 · 10^4 EMP/50 μL + EACA; 1 μM plasminogen; 0.75 mM CBS0065
Method: In the round-bottomed wells of 96-well plates made of PVC, different EMP concentrations in suspension in PBS, to which 0.8% bovine serum albumin (PBSA) had been added, were incubated with 50 μl of a mixture of 1 μM plasminogen and (methyl-malonyl)-hydroxypropylarginine-p-nitroanilide (CBS0065, Stag°, Asniéres, France), chromogenic substrate selective for plasmin, at 0.75 mM.
An identical volume of supernatant from the last washing of the EMPs was used as a control.
The microplate was placed in the microplate readers and the kinetics of the appearance of the plasmin were monitored for 9 hours using a spectrophotometer suitable for reading multiwell plates (MX5000. Dynex) at 37° C. by measurement of the modifications of the absorbance at 405 nm produced by the release of the p-nitroaniline as a function of time.

Chain of plasminogen (P00747 20-810 limits assumed, species assumed): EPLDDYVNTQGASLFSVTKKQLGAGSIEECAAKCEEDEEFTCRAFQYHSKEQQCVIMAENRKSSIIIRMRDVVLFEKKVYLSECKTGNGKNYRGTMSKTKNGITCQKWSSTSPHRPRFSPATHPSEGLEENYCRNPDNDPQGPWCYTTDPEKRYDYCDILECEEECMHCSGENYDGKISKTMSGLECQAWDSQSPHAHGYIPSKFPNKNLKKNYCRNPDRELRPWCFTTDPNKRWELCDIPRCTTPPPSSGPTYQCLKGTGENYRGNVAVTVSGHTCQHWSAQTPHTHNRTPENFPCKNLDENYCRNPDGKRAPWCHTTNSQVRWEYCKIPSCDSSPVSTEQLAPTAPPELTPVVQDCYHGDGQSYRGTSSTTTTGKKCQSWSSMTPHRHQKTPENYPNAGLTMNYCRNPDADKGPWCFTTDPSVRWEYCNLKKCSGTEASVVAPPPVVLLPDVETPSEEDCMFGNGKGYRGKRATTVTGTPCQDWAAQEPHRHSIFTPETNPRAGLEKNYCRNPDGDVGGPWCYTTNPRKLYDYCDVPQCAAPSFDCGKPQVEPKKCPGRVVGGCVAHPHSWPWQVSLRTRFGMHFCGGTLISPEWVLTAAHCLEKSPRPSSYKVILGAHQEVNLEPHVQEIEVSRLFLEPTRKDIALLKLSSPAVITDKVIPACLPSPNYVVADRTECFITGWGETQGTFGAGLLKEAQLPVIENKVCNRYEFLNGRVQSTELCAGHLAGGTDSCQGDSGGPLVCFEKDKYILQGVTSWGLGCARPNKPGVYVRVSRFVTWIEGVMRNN

A405 nm/min: 0.6 A405 nm/min
SMILES: NCCCCCC(=O)O [EACA, ε-aminocaproic acid]

From US8541189B2, “Method for measuring the plasmine activity of microparticles present in a sample of blood or a blood component” (Institut National de la Sante et de la Recherche Medicale …, priority 2007, dated 2013)
